The data set has as its system human ovarian cancer cisplatin-resistant cultured cell A2480CP. In words: ^13C-NMR of excised cancer cells and femoral muscle after intravenous administration to tumour-bearing nude mice. The note with it: for ^13C Area integrated value, Cancer cells: 300 mg/kg, caudal vein, peak areas 90 to 160 ppm, relative to 100 = first animal after 8 hours, two animals. The text has this: Nude mice (female BALB Cnu/nu, about 8 mm in cancer diameter) were used after 3 weeks of the transplantation of 2×10^6 cells/animal of human ovarian cancer cisplatin-resistant cultured cell A2480CP to the right-side body subcutaneously. Preparation of ^13C-labeled 5-aminolevulinic acid aqueous solution:
5-Aminolevulinic acid hydrochloride in which the 5-position carbon was replaced with ^13C (Production Example 4) was used. The 5-aminolevulinic acid hydrochloride in which the 5-position carbon was replaced with ^13C was dissolved in distilled water at a ratio of 25 g/L, and the solution was neutralized to pH 7 with sodium hydroxide.
The thus neutralized solution was sterilized by immediately passing through a 0.22 μm filter and administered from the mouse caudal vein at a ratio of 12 μl per g body weight. This dose corresponds to 300 mg administration of 5-aminolevulinic acid hydrochloride per 1 kg body weight. After 2, 4 and 8 hours of the administration, mice were sacrificed and subjected to bloodletting, and then the cancer cells and femoral part were excised and packed in 10 mmφ NMR sample tubes to the same volume to measure ^13C-NMR by super-conductive NMR, JNM-A400 manufactured by JEOL, at an observation frequency of 100.50 MHz using a proton decoupling method.
After the measurement, peak areas of from 90 to 160 ppm were integrated, and relative values were calculated based on the value 100 of the first animal after 8 hours of the administration. The test was carried out using two animals for each condition.

Several values for one entry are separate records, joined by “and”; a condition that tells them apart may be missing. Equal entries are not always repeated.

As for `Cl.N[13CH2]C(=O)CCC(=O)O` [^13C-labeled 5-aminolevulinic acid, 5-Aminolevulinic acid hydrochloride in which the 5-position carbon was replaced with ^13C], the “^13C Area integrated value, Cancer cells” value is 19 and 22 (2 hours after administration); 89 and 73 (4 hours after administration); 100 and 87 (8 hours after administration). For the same molecule, the “existing frequency of ^13C, cancer cells versus muscle” value (summary of Table 3, 2, 4 and 8 hours after administration) is “higher in the cancer cells than in the muscle”.
